Two compounds from patent publication US12247972B2 (priority 2018, dated 2025) can be followed below.

The structures appear in SMILES notation.

Assay [1] concerns NG108-15 cells (endogenous glutamate receptor). The experiment in a line: Intracellular potential recording of cultured nerve cells with C-M magnet electrode (glutamate response). The conditions noted are these: final external fluid concentration 800 μM. It is filed as cell-based. How it is done:
NG108-15 cells were used for the purpose of showing that recording is possible from cultured nerve cells. NG108-15 cells (neuroblastoma-glioma hybrid cells) were cultured in a culture medium containing DMEM (Sigma-Aldrich), HAT supplement (Thermofisher) and 10% FBS (Biowest). NG108-15 was seeded on a cover glass that was coated with 0.1% Polyethyleneimine (pH8.4, 150 mM Sodium Tetra-Borate (Wako)), and cultured in the culture medium, in which FBS concentration was reduced to 5% from the above culture medium, and the nerve differentiation was induced by adding 500 μM Ibuprofen (Wako). […]
PEI and PEG-gold coated magnetic nanoparticles were mixed and left at room temperature for 3 hours. This mixed solution is moved to the cell-adhesive surface of the neodymium magnet and left for additional 15 minutes to magnetically bond the gold nanoparticles to the neodymium magnet electrode.
The above nanoparticle-bonding magnet electrode was placed on the cultured cells placed on an iron plate. […]
In addition to the spontaneous action potential, the following experiment was conducted to confirm whether the neuronal activity by the neurotransmitter glutamate can be recorded. […] Glutamic acid was administered to the extracellular fluid (final external fluid concentration 800 μM), and the response mediated by glutamate receptors was recorded. […]

The subject of the next assay is NG108-15 cells. The experiment in a line: Intracellular potential recording in differentiated cultured nerve cells with MagEle not isolated from external fluid. The format is cell-based. The conditions noted are these: 3 mM; after 20 μM Veratridine. The procedure: In this experiment, the cultured nerve cells (NG108-15 cells) used in Example 3 were induced and differentiated into nerves under the same differentiation conditions as in the experiment example 3. In the same manner as in Example 3, the MagEle (magnet electrode) is moved from above the target cell toward the cell, and the conductive gold-coated magnetic nanoparticles adsorbed on the MagEle are adhered to the cell membrane to penetrate it. Then, the intracellular potential was measured by connecting the MagEle to the (+) pole and a conductor provided on an insulator (parafilm film) that completely covers the upper surface of the MagEle to the ground. At that time, although the insulator completely covered the top and sides of the (+) pole MagEle, the surface facing the cover glass, to which the cells adhere was not covered, and the cells were not isolated from the external fluid (FIG. 19).
The NG108-15 cells were differentiated by culturing for 3 weeks in DMEM/HAT medium containing 2% FBS supplemented with Forskolin (10 μM).

With `N[C@@H](CCC(=O)O)C(=O)O` [Glutamate, Glutamic acid], in assay [1] (decay due to desensitization), the “time for glutamate-induced membrane potential change to return to baseline” value is recorded as “about 90 seconds”. Besides, in assay [1] (neural differentiation induction for 2 days), the “membrane potential response mediated by glutamate receptors” value is recorded as “depolarization (upward change) response of the membrane potential”. For the compound `CCN(CC)CC(=O)Nc1c(C)cccc1C` [Lidocaine], the “spontaneous action potential induced by Veratridine” value with NG108-15 cells is listed as “suppressed”.
